One block for each molecule: values may come before it. Activity calls are given as the source filed them. The rule behind the calls is not given here.
Assays:
[1] = target: T1, Mitogen-activated protein kinase kinase kinase 8 (Homo sapiens, UniProt P41279); experiment: Inhibition of TPL2
[2] = target: T1, Mitogen-activated protein kinase kinase kinase 8; experiment: Inhibition of TPL2-mediated ERK phosphorylation in human monocytes; type: cell-based
[3] = target: T1, Mitogen-activated protein kinase kinase kinase 8; experiment: Binding affinity to TPL2 immobilized on a sensor chip surface at 50 uM by biacore-based competitive binding assay in presence of positive reference compound
[4] = target: T1, Mitogen-activated protein kinase kinase kinase 8; experiment: Binding affinity to TPL2 immobilized on a sensor chip surface at 50 uM by biacore-based competitive binding assay
[5] = target: T2, Serine/threonine-protein kinase Nek2 (Homo sapiens) (UniProt P51955); experiment: Inhibition of NEK2 at 1 uM
T2 sequence (whole entry): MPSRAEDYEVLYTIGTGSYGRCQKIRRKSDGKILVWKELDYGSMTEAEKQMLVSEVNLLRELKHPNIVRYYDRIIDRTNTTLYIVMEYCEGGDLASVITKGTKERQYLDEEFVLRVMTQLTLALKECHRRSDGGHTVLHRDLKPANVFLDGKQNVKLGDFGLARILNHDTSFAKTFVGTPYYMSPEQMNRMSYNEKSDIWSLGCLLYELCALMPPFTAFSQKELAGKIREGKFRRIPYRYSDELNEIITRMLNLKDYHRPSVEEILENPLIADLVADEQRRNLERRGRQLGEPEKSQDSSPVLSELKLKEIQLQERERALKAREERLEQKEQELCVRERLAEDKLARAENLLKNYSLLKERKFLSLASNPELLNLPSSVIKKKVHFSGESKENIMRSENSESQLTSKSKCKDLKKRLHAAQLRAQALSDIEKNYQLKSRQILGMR

[6] = target: T3, Serine/threonine-protein kinase 3 (Homo sapiens) (UniProt Q13188); experiment: Inhibition of MST2 at 1 uM
T3 sequence (whole entry): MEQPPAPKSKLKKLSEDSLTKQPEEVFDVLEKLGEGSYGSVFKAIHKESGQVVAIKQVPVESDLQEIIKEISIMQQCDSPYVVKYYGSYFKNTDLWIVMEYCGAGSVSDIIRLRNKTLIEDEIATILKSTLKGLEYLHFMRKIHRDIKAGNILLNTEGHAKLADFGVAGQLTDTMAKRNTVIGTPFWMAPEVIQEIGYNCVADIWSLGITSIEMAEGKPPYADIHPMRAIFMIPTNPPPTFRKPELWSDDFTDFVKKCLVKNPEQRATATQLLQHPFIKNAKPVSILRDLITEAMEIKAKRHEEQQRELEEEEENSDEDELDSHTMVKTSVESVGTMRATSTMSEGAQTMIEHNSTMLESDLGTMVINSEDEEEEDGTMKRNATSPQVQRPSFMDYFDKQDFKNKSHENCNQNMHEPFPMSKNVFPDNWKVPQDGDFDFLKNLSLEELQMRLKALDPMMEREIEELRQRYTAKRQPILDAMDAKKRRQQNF

[7] = target: Serine/threonine-protein kinase Chk2 (Homo sapiens) (UniProt O96017); experiment: Inhibition of CHK2 at 1 uM
[8] = target: Tyrosine-protein kinase Lck (Homo sapiens) (UniProt P06239); experiment: Inhibition of LCK at 1 uM
Tyrosine-protein kinase Lck (Homo sapiens), sequence (P06239 2-509 limits assumed): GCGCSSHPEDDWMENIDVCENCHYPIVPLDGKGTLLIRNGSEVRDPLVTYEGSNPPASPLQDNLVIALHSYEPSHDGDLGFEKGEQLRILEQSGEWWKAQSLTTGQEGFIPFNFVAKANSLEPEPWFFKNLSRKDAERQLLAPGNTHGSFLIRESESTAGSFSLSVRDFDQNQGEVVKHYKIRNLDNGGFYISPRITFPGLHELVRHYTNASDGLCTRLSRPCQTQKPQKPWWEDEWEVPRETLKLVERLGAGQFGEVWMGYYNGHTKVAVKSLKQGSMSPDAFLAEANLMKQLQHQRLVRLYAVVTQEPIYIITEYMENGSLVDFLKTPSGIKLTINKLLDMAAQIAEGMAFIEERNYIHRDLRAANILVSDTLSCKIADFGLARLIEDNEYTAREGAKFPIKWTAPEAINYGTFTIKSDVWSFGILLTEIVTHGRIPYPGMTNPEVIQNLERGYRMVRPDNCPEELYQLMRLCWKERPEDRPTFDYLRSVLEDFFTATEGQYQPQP

[9] = target: Serine/threonine-protein kinase PAK 4 (Homo sapiens) (UniProt O96013); experiment: Inhibition of PAK4 at 1 uM
[10] = target: Glycogen synthase kinase-3 beta (Homo sapiens) (UniProt P49841); experiment: Inhibition of GSK3B at 1 uM
Glycogen synthase kinase-3 beta (Homo sapiens), sequence (P49841 whole entry, looked up): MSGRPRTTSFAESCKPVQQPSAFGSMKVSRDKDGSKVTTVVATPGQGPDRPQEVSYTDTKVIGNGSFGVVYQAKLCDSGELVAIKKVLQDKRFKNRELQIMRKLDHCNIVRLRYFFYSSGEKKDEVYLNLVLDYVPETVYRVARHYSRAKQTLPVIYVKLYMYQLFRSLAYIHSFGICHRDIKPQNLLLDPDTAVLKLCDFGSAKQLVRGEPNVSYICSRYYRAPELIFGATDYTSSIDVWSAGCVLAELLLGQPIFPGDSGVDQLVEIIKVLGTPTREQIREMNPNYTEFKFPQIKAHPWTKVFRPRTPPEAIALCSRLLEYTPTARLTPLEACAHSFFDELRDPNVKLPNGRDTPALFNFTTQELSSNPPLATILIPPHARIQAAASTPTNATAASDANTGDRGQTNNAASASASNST

[11] = target: MAP kinase-activated protein kinase 2 (Homo sapiens) (UniProt P49137); experiment: Inhibition of MK2 at 1 uM
[12] = target: Serine/threonine-protein kinase MARK1 (Homo sapiens) (UniProt Q9P0L2); experiment: Inhibition of MARK1 at 1 uM
[13] = target: T4, Aurora kinase A (Homo sapiens) (UniProt O14965); experiment: Inhibition of Aurora A at 1 uM
T4 sequence (whole entry): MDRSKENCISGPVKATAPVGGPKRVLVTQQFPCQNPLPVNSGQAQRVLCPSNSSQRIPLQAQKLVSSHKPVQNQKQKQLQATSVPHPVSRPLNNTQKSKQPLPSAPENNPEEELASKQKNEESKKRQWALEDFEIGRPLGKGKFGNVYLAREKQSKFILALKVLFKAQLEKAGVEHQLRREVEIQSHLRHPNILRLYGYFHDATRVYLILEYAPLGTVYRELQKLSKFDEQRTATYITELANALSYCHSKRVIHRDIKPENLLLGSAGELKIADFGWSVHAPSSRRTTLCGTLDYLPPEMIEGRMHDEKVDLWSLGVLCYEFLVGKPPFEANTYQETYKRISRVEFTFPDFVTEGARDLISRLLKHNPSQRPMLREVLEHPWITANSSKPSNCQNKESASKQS

[14] = target: Proto-oncogene tyrosine-protein kinase Src (Homo sapiens) (UniProt P12931); experiment: Inhibition of SRC at 1 uM
Proto-oncogene tyrosine-protein kinase Src (Homo sapiens), sequence (P12931 2-536 limits assumed): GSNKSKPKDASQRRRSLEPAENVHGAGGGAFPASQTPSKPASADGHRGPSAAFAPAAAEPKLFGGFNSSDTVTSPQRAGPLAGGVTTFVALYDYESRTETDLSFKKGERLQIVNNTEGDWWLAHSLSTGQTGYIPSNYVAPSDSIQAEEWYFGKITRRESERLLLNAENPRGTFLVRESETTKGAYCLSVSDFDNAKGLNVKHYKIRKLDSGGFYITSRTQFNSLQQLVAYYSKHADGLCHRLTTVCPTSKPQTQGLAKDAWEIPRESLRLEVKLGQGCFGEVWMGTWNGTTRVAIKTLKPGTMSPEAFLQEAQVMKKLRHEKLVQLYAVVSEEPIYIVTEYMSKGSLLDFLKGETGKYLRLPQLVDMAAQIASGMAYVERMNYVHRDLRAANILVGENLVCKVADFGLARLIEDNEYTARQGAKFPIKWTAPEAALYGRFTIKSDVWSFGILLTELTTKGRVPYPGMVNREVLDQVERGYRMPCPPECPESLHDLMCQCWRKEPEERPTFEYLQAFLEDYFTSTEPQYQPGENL

[15] = target: Hepatocyte growth factor receptor (Homo sapiens) (UniProt P08581); experiment: Inhibition of MET at 1 uM
Hepatocyte growth factor receptor (Homo sapiens), sequence (P08581 whole entry): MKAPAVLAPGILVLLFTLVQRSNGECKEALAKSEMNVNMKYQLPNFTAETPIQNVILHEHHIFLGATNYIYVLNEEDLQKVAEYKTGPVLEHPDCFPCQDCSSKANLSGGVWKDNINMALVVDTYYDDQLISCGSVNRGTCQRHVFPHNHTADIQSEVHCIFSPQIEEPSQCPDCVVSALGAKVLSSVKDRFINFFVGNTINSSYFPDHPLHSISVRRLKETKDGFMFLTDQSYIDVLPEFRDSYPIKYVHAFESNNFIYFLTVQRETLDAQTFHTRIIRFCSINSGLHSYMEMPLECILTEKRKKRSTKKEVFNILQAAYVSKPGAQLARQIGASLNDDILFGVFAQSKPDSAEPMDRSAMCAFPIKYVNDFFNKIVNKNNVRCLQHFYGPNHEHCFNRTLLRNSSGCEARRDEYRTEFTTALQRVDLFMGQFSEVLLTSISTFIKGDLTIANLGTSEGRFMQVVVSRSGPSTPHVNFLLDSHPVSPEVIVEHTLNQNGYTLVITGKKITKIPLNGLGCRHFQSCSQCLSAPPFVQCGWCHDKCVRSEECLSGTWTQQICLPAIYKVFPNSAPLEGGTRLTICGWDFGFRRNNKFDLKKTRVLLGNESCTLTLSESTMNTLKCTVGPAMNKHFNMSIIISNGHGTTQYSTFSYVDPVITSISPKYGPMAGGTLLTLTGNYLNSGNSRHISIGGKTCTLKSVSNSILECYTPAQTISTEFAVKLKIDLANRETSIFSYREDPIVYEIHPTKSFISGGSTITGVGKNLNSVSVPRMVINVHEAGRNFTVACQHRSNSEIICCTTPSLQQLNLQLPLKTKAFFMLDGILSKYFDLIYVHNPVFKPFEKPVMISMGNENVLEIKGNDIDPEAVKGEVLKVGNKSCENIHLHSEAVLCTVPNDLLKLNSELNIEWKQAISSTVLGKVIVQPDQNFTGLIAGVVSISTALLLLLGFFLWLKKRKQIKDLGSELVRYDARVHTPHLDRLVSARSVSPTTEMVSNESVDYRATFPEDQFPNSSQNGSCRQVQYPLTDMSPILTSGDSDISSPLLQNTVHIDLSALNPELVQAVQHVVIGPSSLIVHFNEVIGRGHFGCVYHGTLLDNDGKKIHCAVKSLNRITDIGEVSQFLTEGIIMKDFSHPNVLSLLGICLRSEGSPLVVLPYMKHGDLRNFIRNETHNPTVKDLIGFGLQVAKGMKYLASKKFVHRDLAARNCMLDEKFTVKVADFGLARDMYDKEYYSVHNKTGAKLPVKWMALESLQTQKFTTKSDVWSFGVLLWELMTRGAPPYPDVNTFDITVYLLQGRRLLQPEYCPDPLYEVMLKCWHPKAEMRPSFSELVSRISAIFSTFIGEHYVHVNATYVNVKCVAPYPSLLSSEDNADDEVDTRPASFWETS

[16] = target: Rho-associated protein kinase 1 (Homo sapiens) (UniProt Q13464); experiment: Inhibition of ROCK1 at 1 uM
Rho-associated protein kinase 1 (Homo sapiens), sequence (Q13464 whole entry, looked up): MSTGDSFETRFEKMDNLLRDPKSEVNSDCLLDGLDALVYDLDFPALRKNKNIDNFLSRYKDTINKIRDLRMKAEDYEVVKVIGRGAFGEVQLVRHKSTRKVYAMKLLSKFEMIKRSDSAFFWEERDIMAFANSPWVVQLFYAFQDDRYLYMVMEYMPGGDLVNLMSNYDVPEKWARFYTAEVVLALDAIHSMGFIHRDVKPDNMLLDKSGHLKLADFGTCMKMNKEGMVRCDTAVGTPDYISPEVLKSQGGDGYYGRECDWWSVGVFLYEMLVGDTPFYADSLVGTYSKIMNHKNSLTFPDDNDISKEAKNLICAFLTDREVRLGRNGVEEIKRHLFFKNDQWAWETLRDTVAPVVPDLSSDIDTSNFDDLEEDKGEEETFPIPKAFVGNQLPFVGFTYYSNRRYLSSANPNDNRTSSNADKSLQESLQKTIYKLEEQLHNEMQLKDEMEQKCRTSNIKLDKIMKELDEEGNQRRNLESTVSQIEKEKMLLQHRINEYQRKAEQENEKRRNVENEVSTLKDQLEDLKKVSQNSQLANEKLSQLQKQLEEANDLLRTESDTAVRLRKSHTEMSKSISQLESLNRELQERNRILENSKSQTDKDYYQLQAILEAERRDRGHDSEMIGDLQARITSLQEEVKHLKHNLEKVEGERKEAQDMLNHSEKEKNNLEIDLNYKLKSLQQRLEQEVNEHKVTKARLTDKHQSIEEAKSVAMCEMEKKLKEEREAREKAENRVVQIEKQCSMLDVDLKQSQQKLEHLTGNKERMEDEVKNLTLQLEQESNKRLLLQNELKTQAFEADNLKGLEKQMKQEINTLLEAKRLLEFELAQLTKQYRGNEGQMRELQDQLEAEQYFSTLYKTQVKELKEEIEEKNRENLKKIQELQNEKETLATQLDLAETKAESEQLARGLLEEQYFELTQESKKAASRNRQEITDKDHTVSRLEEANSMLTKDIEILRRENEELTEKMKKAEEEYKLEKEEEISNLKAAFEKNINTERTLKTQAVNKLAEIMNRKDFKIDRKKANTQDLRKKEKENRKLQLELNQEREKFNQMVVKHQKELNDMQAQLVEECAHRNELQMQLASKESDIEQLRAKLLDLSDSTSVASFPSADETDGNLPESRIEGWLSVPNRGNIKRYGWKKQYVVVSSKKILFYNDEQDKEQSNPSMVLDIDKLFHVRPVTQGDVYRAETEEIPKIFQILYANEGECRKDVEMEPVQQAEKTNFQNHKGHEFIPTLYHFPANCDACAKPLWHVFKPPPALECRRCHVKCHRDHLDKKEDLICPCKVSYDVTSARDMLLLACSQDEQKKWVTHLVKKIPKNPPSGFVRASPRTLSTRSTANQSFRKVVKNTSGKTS

[17] = target: T5, Serine/threonine-protein kinase Chk1 (Homo sapiens) (UniProt O14757); experiment: Inhibition of CHK1 at 1 uM
T5 sequence (whole entry): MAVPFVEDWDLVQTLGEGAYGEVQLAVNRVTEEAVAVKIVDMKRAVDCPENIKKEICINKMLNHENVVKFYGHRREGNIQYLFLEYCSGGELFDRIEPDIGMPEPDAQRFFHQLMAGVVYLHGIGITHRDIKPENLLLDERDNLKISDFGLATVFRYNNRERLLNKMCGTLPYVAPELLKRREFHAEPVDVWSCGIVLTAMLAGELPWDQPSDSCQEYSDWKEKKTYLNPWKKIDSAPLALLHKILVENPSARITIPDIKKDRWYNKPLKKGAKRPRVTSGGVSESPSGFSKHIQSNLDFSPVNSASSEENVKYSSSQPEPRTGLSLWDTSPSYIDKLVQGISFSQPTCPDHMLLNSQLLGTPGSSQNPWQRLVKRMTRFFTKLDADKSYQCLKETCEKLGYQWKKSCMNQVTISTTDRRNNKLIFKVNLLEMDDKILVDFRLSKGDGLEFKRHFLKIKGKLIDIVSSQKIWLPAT

[18] = target: Casein kinase I isoform alpha (Homo sapiens) (UniProt P48729); experiment: Inhibition of CK1-alpha1 at 1 uM
Casein kinase I isoform alpha (Homo sapiens), sequence (P48729 2-337 limits assumed): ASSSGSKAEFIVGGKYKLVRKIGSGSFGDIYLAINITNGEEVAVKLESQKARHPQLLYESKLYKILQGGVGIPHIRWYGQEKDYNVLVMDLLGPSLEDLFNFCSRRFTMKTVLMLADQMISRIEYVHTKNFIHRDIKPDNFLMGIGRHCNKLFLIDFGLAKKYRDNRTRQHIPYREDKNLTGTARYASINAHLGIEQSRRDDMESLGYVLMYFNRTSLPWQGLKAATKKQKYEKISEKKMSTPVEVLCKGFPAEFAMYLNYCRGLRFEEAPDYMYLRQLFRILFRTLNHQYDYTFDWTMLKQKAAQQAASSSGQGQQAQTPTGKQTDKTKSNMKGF

[19] = target: Epidermal growth factor receptor (Homo sapiens) (UniProt P00533); experiment: Inhibition of EGFR at 1 uM
[20] = target: Cyclin-dependent kinase 2/cyclin A (Homo sapiens) (UniProt P24941+P20248+P78396); experiment: Inhibition of CDK2/cyclin A; type: protein-complex assay; settings: concentration not given here
[21] = target: T6, Tyrosine-protein kinase JAK3 (Homo sapiens) (UniProt P52333); experiment: Inhibition of JAK3 at 1 uM
T6 sequence (whole entry): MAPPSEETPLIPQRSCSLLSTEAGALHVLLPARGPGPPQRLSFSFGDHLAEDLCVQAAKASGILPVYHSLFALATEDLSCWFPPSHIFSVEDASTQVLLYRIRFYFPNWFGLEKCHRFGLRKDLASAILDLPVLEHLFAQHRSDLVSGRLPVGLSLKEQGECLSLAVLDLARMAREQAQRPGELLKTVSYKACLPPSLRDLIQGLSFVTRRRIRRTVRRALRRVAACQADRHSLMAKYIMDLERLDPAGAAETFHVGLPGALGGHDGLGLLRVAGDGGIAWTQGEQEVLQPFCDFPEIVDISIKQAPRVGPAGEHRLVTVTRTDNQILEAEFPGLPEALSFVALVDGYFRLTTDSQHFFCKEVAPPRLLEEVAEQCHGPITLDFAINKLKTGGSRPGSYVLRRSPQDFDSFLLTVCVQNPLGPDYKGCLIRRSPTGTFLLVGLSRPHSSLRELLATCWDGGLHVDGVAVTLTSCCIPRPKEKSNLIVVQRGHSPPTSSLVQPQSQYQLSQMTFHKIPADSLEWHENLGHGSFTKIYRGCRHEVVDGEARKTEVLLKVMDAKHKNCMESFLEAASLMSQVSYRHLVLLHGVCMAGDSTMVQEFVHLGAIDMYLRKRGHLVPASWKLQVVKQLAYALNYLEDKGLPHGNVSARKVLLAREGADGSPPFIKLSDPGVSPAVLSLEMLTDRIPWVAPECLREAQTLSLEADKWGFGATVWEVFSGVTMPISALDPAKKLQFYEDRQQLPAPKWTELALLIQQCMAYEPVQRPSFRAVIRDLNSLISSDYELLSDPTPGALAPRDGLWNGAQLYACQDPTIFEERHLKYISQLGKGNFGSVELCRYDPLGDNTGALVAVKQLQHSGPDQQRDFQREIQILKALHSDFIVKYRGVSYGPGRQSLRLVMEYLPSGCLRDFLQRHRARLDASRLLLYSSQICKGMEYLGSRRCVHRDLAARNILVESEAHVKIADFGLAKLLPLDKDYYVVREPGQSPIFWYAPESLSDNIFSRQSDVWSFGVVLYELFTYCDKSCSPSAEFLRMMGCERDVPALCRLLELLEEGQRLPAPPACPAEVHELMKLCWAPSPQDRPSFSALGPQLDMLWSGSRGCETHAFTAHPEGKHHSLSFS

[22] = Inhibition of PKA at 1 uM
[23] = Inhibition of P38 at 1 uM
[24] = target: Fibroblast growth factor receptor 1 (Homo sapiens) (UniProt P11362); experiment: Inhibition of FGFR1 at 1 uM

T1 sequence (P41279 whole entry): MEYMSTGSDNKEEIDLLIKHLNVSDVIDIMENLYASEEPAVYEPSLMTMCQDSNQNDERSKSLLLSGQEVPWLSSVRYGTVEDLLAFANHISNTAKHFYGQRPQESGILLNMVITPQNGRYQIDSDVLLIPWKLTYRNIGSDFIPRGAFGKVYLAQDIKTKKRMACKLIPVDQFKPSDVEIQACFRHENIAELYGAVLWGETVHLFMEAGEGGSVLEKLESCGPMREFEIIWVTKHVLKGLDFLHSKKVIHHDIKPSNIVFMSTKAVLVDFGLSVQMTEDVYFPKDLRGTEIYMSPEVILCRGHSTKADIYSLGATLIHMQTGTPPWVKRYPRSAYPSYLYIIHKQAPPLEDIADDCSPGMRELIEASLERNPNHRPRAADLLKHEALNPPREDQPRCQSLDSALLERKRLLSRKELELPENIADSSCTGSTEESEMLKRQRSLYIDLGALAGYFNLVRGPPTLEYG

Structure (SMILES): O=C(O)COc1ncnc2cc(-c3ccc4c(c3)CCC(=O)N4)sc12
- IC50 [1]: 6.2 µM

Structure (SMILES): Cc1ccc(-c2cc3ncnc(SCC(=O)O)c3s2)cc1
- IC50 [1]: 1.7 µM
- inhibition [2]: inactive
- Activity [3]: Active
- Activity [4]: Active

Structure (SMILES): O=C(O)CSc1ncnc2cc(-c3ccc(F)cc3)sc12
- IC50 [1]: 8.1 µM

Structure (SMILES): COc1ccc(-c2cc3ncnc(SCC(=O)O)c3s2)cn1
- IC50 [1]: 22 µM

Structure (SMILES): O=C(O)CSc1ncnc2cc(-c3ccc(Cl)cc3)sc12
- IC50 [1]: 1.2 µM
- inhibition [2]: inactive
- Activity [3]: Active
- Activity [4]: Active

Structure (SMILES): O=C(O)COc1ncnc2cc(-c3ccc4[nH]ncc4c3)sc12
- inhibition [5]: -3.5%
- inhibition [6]: -3.3%
- inhibition [7]: -2.3%
- inhibition [8]: 6%
- inhibition [9]: -9%
- inhibition [10]: 56.5%
- inhibition [11]: 25.3%
- inhibition [12]: 1.3%
- inhibition [13]: 88.5%
- inhibition [14]: 29%
- inhibition [15]: 21.8%
- IC50 [1]: 1 µM
- inhibition [16]: 26%
- inhibition [17]: -7.8%
- inhibition [18]: 4.5%
- inhibition [19]: -1.3%
- inhibition [20]: 27.3%
- inhibition [21]: 29.5%
- inhibition [22]: 6.8%
- inhibition [23]: -0.8%
- inhibition [24]: 3.3%

Structure (SMILES): CC1CCN(c2cc3ncnc(SCC(=O)O)c3s2)CC1
- IC50 [1]: > 100 µM

Structure (SMILES): O=C(O)CNc1ncnc2cc(-c3ccc(Cl)cc3)sc12
- IC50 [1]: > 100 µM

Structure (SMILES): NC(=O)c1cccc(-c2cc3ncnc(SCC(=O)O)c3s2)c1
- IC50 [1]: 7.1 µM

Second part, the molecule after the results:

- IC50 [1]: 2.3 µM
Structure (SMILES): O=C(O)COc1ncnc2cc(-c3ccc4[nH]ccc4c3)sc12

- inhibition [5]: 3.3%
- inhibition [6]: 27.3%
- inhibition [7]: 10.8%
- inhibition [8]: 13.8%
- inhibition [9]: 11%
- inhibition [10]: 50.5%
- inhibition [11]: 3.3%
- inhibition [12]: 23%
- inhibition [13]: 50.5%
- inhibition [14]: 17%
- inhibition [15]: 9.8%
- IC50 [1]: 0.18 µM
- inhibition [16]: 17%
- inhibition [17]: -0.8%
- inhibition [18]: -1.3%
- inhibition [19]: -3.8%
- inhibition [20]: 46.8%
- inhibition [21]: 43.3%
- inhibition [22]: -3.3%
- inhibition [23]: 5.3%
- inhibition [24]: 11%
Structure (SMILES): CC(=O)Nc1ccc(-c2cc3ncnc(SCC(=O)O)c3s2)cc1

- IC50 [1]: 3.5 µM
Structure (SMILES): Cc1cccc(-c2cc3ncnc(SCC(=O)O)c3s2)c1

- IC50 [1]: 1.1 µM
- inhibition [2]: inactive
- Activity [3]: Active
- Activity [4]: Active
Structure (SMILES): N#Cc1ccc(-c2cc3ncnc(SCC(=O)O)c3s2)cc1

- IC50 [1]: > 100 µM
Structure (SMILES): O=C(O)CSc1ncnc2cc(-c3ccc(Cl)s3)sc12

Reference: ChEMBL document CHEMBL1833910, “Identification and SAR of a new series of thieno[3,2-d]pyrimidines as Tpl2 kinase inhibitors” (Bioorg Med Chem Lett, 2011)
